Reference: patent US10822322B2 (OCEANS LTD., priority 2016, dated 2020)

Experiments:
[1] = tested on: THP-1 (acute monocytic leukemia); assay: CIMA assay (tetrazolium reduction, cell viability), THP-1; type: cell-based, human
Procedure: (§1) Stock solutions of the extracts were prepared in dimethylsulfoxide (DMSO) at 10 mg/mL and stored in 200 μl aliquots at −20° C. until analysis. This preparation ensured that the DMSO delivered to cells in culture never exceeded 1%.
(§2) Prepared extracts were assessed following chronic exposure conditions in which cells were seeded at 2×10^3 cells/well (96 wells-plate) and incubated with test compounds for 72 h. Each compound was evaluated over a range of concentrations (0, 10, 25, 50 or 100 μg/ml). Cell proliferation was initially assessed using a standard colorimetric indicator of metabolic activity (CIMA) assay. In this assay, tetrazole reduction was evaluated as a measure of metabolic function that evaluates mitochondrial activity to determine the extent of cell proliferation within a culture. This assay is based on the reduction of yellow tetrazolium salt to purple formazan by mitochondrial reductases enzyme in viable cells, resulting in a color changed that confers a change in absorbance. Six human cell lines were selected for primary evaluation: U373 (glioblastoma-astrocytoma), A549 (lung carcinoma), THP-1 (acute monocytic leukemia), MCF7 (mammary gland adenocarcinoma), SKOV3 (ovarian adenocarcinoma), and CCD1079SK (fibroblast, noncancerous but proliferating) (see FIG. 2 and Table 2). Table 3 expresses the IC50 for each extract.
(§3) These sub-fractions were again subjected to the bioassay evaluation presented above. Results are expressed in Table 8 as % viability (means±standard deviation of three replicates), with LD50/IC50 values in Table 9. […] The maximum DMSO concentration was 1% at 100 μg/ml with 5% SDS used as a known toxic inducer.

[2] = tested on: PC3; assay: CIMA assay (tetrazolium reduction, cell viability), PC3; type: cell-based
[3] = tested on: A549 (lung carcinoma); assay: CIMA assay (tetrazolium reduction, cell viability), A549; type: cell-based, human
Procedure: as §1, §2, §3

[4] = tested on: U373 (glioblastoma-astrocytoma); assay: CIMA assay (tetrazolium reduction, cell viability), U373; type: cell-based, human
Procedure: as §1, §2, §3

[5] = tested on: SKOV3 (ovarian adenocarcinoma); assay: CIMA assay (tetrazolium reduction, cell viability), SKOV3; type: cell-based, human
Procedure: as §1, §2, §3

[6] = tested on: MCF7 (mammary gland adenocarcinoma); assay: CIMA assay (tetrazolium reduction, cell viability), MCF7; type: cell-based, human
Procedure: as §1
as §2, with “extract. […]” for “extract.”

[7] = tested on: CCD1079SK (fibroblast, noncancerous but proliferating); assay: CIMA assay (tetrazolium reduction, cell viability), CCD1079SK; type: cell-based, human
Procedure: as §1, §2, §3

[8] = as above; type: cell-based, human; conditions: human
Procedure: as §1, §2, §3

[9] = tested on: MDA-MB; assay: CIMA assay (cell viability), MDA-MB; type: cell-based
[10] = Homo sapiens, THP-1, read-out: average cell viability
[11] = Homo sapiens, PC-3, read-out: average cell viability
[12] = Homo sapiens, A549, read-out: average cell viability
[13] = Homo sapiens, U373 MG, read-out: average cell viability
[14] = Homo sapiens, SK-OV-3, read-out: average cell viability

Question: With CCCCCCCCCCCCOS(=O)(=O)[O-].[Na+] [SDS 5%, reference compound] as the compound, how does the “% viability AVG” value [1] read?
Answer: 39.9%

Question: What about the “% viability AVG” value [2] of the same compound?
Answer: 94.4%

Question: And the cell viability AVG [2]?
Answer: 77.3%

Question: What about the “% viability AVG” value [3] of the same compound?
Answer: 66.2%

Question: What about the cell viability AVG [3] of the same compound?
Answer: 68.7%

Question: What about the “% viability AVG” value [4] of the same compound?
Answer: 78.5%

Question: And the “% viability AVG” value [5]?
Answer: 90.7%

Question: And the “% viability AVG” value [6]?
Answer: 93.7%

Question: And the “% viability AVG” value [7]?
Answer: 87.9%

Question: What does the source list for CCCCCC(O)C(O)/C=C/C1CCCCCCCC(=O)O1 (stereo not drawn) [compound 31-34-5, 12,13-dihydroxy-10-octadecen-9-olide]?
Answer: viability at 1 µg/mL [1, 10]: 96%; viability at 10 µg/mL [1, 10]: 84%; viability at 50 µg/mL [1, 10]: 68%; viability at 100 µg/mL [1, 10]: 44%; viability at 1 µg/mL [2, 11]: 100%; viability at 10 µg/mL [2, 11]: 93%; viability at 50 µg/mL [2, 11]: 97%; viability at 100 µg/mL [2, 11]: 19%; viability at 1 µg/mL [3, 12]: 95%; viability at 10 µg/mL [3, 12]: 93%; viability at 50 µg/mL [3, 12]: 92%; viability at 100 µg/mL [3, 12]: 61%; viability at 1 µg/mL [4, 13]: 90%; viability at 10 µg/mL [4, 13]: 85%; viability at 50 µg/mL [4, 13]: 68%; viability at 100 µg/mL [4, 13]: 3%; viability at 1 µg/mL [5, 14]: 97%; viability at 10 µg/mL [5, 14]: 97%; viability at 50 µg/mL [5, 14]: 94%; viability at 100 µg/mL [5, 14]: 85%; viability at 72 h, 1 µg/mL [8]: 91%; viability at 72 h, 10 µg/mL [8]: 84%; viability at 72 h, 50 µg/mL [8]: 90%; viability at 72 h, 100 µg/mL [8]: 17%; fold change viability (AVG) ([9]; 10 ug/mL): 1.05; fold change viability (AVG) ([9]; 50 ug/mL): 0.72; viability at 1 µg/mL ([9]; 1 Ug/mL): 101%; viability at 10 µg/mL ([9]; 10 Ug/mL): 96%; viability at 50 µg/mL ([9]; 50 Ug/mL): 66%; viability at 100 µg/mL ([9]; 100 Ug/mL): 20%
